From BindingDB's records for doi:10.1016/j.bmcl.2009.09.123 (Genomics Institute of The Novartis Research Foundation, 2009) come the findings set out here.

Assay [1] in a line: Inhibition of Tel-fused LCK expressed in mouse BAF3 cells.
Assay [2] can be described thus: Inhibition of Tel-fused KDR expressed in mouse BAF3 cells.
Assay [3] in a line: Inhibition of Tel-fused SRC expressed in mouse BAF3 cells.
The nature of assay [4]: Inhibition of Tel-fused LYN expressed in mouse BAF3 cells.

As a reminder, the IC50 is the midpoint of a concentration-inhibition curve.

For `Cc1ccc(C(=O)Nc2cccc(C(C)(C)C)c2)cc1Nc1nc2ccccc2n1-c1cc(N)ncn1` [3-(1-(6-aminopyrimidin-4-yl)-1H-benzo[d]imidazol-2-ylamino)-N-(3-tert-butylphenyl)-4-methylbenzamide], the 50% inhibitory concentration (IC50) in assay [1] stood at 16 nM; in assay [2], 52 nM; in assay [3], 202 nM; in assay [4], 16 nM.

For the compound `Cc1ccc(C(=O)Nc2cccc3cnccc23)cc1Nc1nc2ccccc2n1-c1cc(N)ncn1` [3-(1-(6-aminopyrimidin-4-yl)-1H-benzo[d]imidazol-2-ylamino)-N-(isoquinolin-5-yl)-4-methylbenzamide], the half-maximal inhibitory concentration (IC50) worked out at 3240 nM in assay [1], 10600 nM in assay [2], 7610 nM in assay [3] and 7840 nM in assay [4].

Take `Cc1ccc(C(=O)Nc2cccc(C(F)(F)F)c2)cc1Nc1nc2ccccc2n1-c1ncnc(NCCCN2CCN(C)CC2)n1` [4-methyl-3-(1-(4-(3-(4-methylpiperazin-1-yl)propylamino)-1,3,5-triazin-2-yl)-1H-benzo[d]imidazol-2-ylamino)-N-(3-(trifluoromethyl)phenyl)benzamide]: the IC50 was found to be 20 nM in assay [1], 133 nM in assay [2], 117 nM in assay [3] and 43 nM in assay [4].

Regarding `Cc1ccc(C(=O)Nc2cccc(C(F)(F)F)c2)cc1Nc1nc2ccccc2n1-c1cc(NCCN2CCN(C)CC2)ncn1` [4-methyl-3-(1-(6-(2-(4-methylpiperazin-1-yl)ethylamino)pyrimidin-4-yl)-1H-benzo[d]imidazol-2-ylamino)-N-(3-(trifluoromethyl)phenyl)benzamide], the IC50 was 45 nM in assay [1], 185 nM in assay [2], 527 nM in assay [3] and 113 nM in assay [4].

Consider `Cc1cccc(NC(=O)c2ccc(C)c(Nc3nc4ccccc4n3-c3cc(NCCN4CCN(C)CC4)ncn3)c2)c1` [4-methyl-3-(1-(6-(2-(4-methylpiperazin-1-yl)ethylamino)pyrimidin-4-yl)-1H-benzo[d]imidazol-2-ylamino)-N-m-tolylbenzamide], for which the half-inhibitory concentration (IC50) turned out to be 762 nM in assay [1], 2090 nM in assay [2], 1540 nM in assay [3] and 1660 nM in assay [4].

As for `Cc1ccc(C(=O)Nc2cccc(C(F)(F)F)c2)cc1Nc1nc2ccccc2n1-c1cc(NCCCN2CCN(C)CC2)ncn1` [4-methyl-3-(1-(6-(3-(4-methylpiperazin-1-yl)propylamino)pyrimidin-4-yl)-1H-benzo[d]imidazol-2-ylamino)-N-(3-(trifluoromethyl)phenyl)benzamide], the IC50 in assay [1] is 23 nM; in assay [2], 117 nM; in assay [3], 364 nM; in assay [4], 84 nM.

Take `Cc1cccc(NC(=O)c2ccc(C)c(Nc3nc4ccccc4n3-c3cc(NCCCN4CCN(C)CC4)ncn3)c2)c1` [4-methyl-3-(1-(6-(3-(4-methylpiperazin-1-yl)propylamino)pyrimidin-4-yl)-1H-benzo[d]imidazol-2-ylamino)-N-m-tolylbenzamide]: the half-inhibitory concentration (IC50) in assay [1] stood at 337 nM; in assay [2] it was 1110 nM; in assay [3], 1410 nM; in assay [4], 1230 nM.

In the case of `CCN(CC)CCNc1cc(-n2c(Nc3cc(NC(=O)c4cccc(C(F)(F)F)c4)ccc3C)nc3ccccc32)ncn1` [N-(3-(1-(6-(2-(diethylamino)ethylamino)pyrimidin-4-yl)-1H-benzo[d]imidazol-2-ylamino)-4-methylphenyl)-3-(trifluoromethyl)benzamide], the IC50 came to 418 nM in assay [1], 1730 nM in assay [2], 398 nM in assay [3] and 642 nM in assay [4].

With `Cc1ccc(NC(=O)c2cccc(C(F)(F)F)c2)cc1Nc1nc2ccccc2n1-c1cc(NCCN)ncn1` [N-(3-(1-(6-(2-aminoethylamino)pyrimidin-4-yl)-1H-benzo[d]imidazol-2-ylamino)-4-methylphenyl)-3-(trifluoromethyl)benzamide], the IC50 is 470 nM in assay [1], 1750 nM in assay [2], 1290 nM in assay [3] and 1470 nM in assay [4].

Take `Cc1ccc(NC(=O)c2cccc(C(F)(F)F)c2)cc1Nc1nc2ccccc2n1-c1cc(NCCO)ncn1` [N-(3-(1-(6-(2-hydroxyethylamino)pyrimidin-4-yl)-1H-benzo[d]imidazol-2-ylamino)-4-methylphenyl)-3-(trifluoromethyl)benzamide]: the IC50 worked out at 229 nM in assay [1], 590 nM in assay [2], 1700 nM in assay [3] and 400 nM in assay [4].

With `Cc1ccc(NC(=O)c2cccc(C(F)(F)F)c2)cc1Nc1nc2ccccc2n1-c1cc(NCCCN)ncn1` [N-(3-(1-(6-(3-aminopropylamino)pyrimidin-4-yl)-1H-benzo[d]imidazol-2-ylamino)-4-methylphenyl)-3-(trifluoromethyl)benzamide], the IC50 is 387 nM in assay [1], 1470 nM in assay [2], 1320 nM in assay [3] and 1120 nM in assay [4].

Take `Cc1ccc(NC(=O)c2cccc(C(F)(F)F)c2)cc1Nc1nc2ccccc2n1-c1cc(NCCCCN(C)C)ncn1` [N-(3-(1-(6-(4-(dimethylamino)butylamino)pyrimidin-4-yl)-1H-benzo[d]imidazol-2-ylamino)-4-methylphenyl)-3-(trifluoromethyl)benzamide]: the IC50 in assay [1] came to 108 nM; in assay [2], 1360 nM; in assay [3], 1210 nM; in assay [4], 399 nM.

As for `Cc1ccc(NC(=O)c2cccc(C(F)(F)F)c2)cc1Nc1nc2ccccc2n1-c1cc(NCCCCN)ncn1` [N-(3-(1-(6-(4-aminobutylamino)pyrimidin-4-yl)-1H-benzo[d]imidazol-2-ylamino)-4-methylphenyl)-3-(trifluoromethyl)benzamide], the 50% inhibitory concentration (IC50) in assay [1] stood at 366 nM; in assay [2], 599 nM; in assay [3] it was 1660 nM; in assay [4], 457 nM.

For the compound `Cc1ccc(NC(=O)c2cccc(C(F)(F)F)c2)cc1Nc1nc2ccccc2n1-c1cc(N[C@H]2CC[C@H](N)CC2)ncn1` [N-(3-(1-(6-(trans-4-aminocyclohexylamino)pyrimidin-4-yl)-1H-benzo[d]imidazol-2-ylamino)-4-methylphenyl)-3-(trifluoromethyl)benzamide], the concentration for half-maximal inhibition (IC50) in assay [1] was 392 nM; in assay [2], 609 nM; in assay [3], 739 nM; in assay [4] it was 547 nM.

`Cc1ccc(NC(=O)c2cc(CN3CCN(C)CC3)n(C(C)(C)C)n2)cc1Nc1nc2ccccc2n1-c1cc(N)ncn1` [N-(3-(1-(6-aminopyrimidin-4-yl)-1H-benzo[d]imidazol-2-ylamino)-4-methylphenyl)-1-tert-butyl-5-((4-methylpiperazin-1-yl)methyl)-1H-pyrazole-3-carboxamide]: the IC50 in assay [1] was determined as 18 nM; in assay [2] it was 63 nM; in assay [3], 249 nM; in assay [4], 88 nM.

Consider `Cc1ccc(NC(=O)c2cc(Cl)cc(Cl)c2)cc1Nc1nc2ccccc2n1-c1cc(N)ncn1` [N-(3-(1-(6-aminopyrimidin-4-yl)-1H-benzo[d]imidazol-2-ylamino)-4-methylphenyl)-3,5-dichlorobenzamide], for which the half-inhibitory concentration (IC50) in assay [1] amounted to 1070 nM; in assay [2], 6360 nM; in assay [3], 9690 nM; in assay [4] it was 3610 nM.

Regarding `Cc1ccc(NC(=O)c2cc(OC3CCN(C)CC3)cc(C(F)(F)F)c2)cc1Nc1nc2ccccc2n1-c1cc(N)ncn1` [N-(3-(1-(6-aminopyrimidin-4-yl)-1H-benzo[d]imidazol-2-ylamino)-4-methylphenyl)-3-(1-methylpiperidin-4-yloxy)-5-(trifluoromethyl)benzamide], the IC50 in assay [1] was 7 nM; in assay [2], 66 nM; in assay [3] it was 39 nM; in assay [4], 5 nM.

As to `CCN1CCN(c2cc(C(=O)Nc3ccc(C)c(Nc4nc5ccccc5n4-c4cc(N)ncn4)c3)cc(C(F)(F)F)c2)CC1` [N-(3-(1-(6-aminopyrimidin-4-yl)-1H-benzo[d]imidazol-2-ylamino)-4-methylphenyl)-3-(4-ethylpiperazin-1-yl)-5-(trifluoromethyl)benzamide], the IC50 was determined as 4 nM in assay [1], 5 nM in assay [2], 57 nM in assay [3] and 9 nM in assay [4].

With `Cc1ccc(NC(=O)c2cc(N3CCN(C)CC3)cc(C(F)(F)F)c2)cc1Nc1nc2ccccc2n1-c1cc(N)ncn1` [N-(3-(1-(6-aminopyrimidin-4-yl)-1H-benzo[d]imidazol-2-ylamino)-4-methylphenyl)-3-(4-methylpiperazin-1-yl)-5-(trifluoromethyl)benzamide], the IC50 is 3 nM in assay [1], 43 nM in assay [2], 47 nM in assay [3] and 6 nM in assay [4].

On to `Cc1ccc(NC(=O)c2cccc(C(F)(F)F)c2)cc1Nc1nc2ccccc2n1-c1cc(N)ncn1` [N-(3-(1-(6-aminopyrimidin-4-yl)-1H-benzo[d]imidazol-2-ylamino)-4-methylphenyl)-3-(trifluoromethyl)benzamide], for which the IC50 in assay [1] came out at 7 nM; in assay [2] it was 36 nM; in assay [3], 78 nM; in assay [4] it was 14 nM.

`CCN1CCN(Cc2ccc(C(=O)Nc3ccc(C)c(Nc4nc5ccccc5n4-c4cc(N)ncn4)c3)cc2Cl)CC1` [N-(3-(1-(6-aminopyrimidin-4-yl)-1H-benzo[d]imidazol-2-ylamino)-4-methylphenyl)-3-chloro-4-((4-ethylpiperazin-1-yl)methyl)benzamide]: the half-maximal inhibitory concentration (IC50) in assay [1] came to 5 nM; in assay [2] it was 30 nM; in assay [3], 47 nM; in assay [4], 10 nM.

`Cc1ccc(NC(=O)c2cc(C3CC3)n[nH]2)cc1Nc1nc2ccccc2n1-c1cc(N)ncn1` [N-(3-(1-(6-aminopyrimidin-4-yl)-1H-benzo[d]imidazol-2-ylamino)-4-methylphenyl)-3-cyclopropyl-1H-pyrazole-5-carboxamide]: the 50% inhibitory concentration (IC50) in assay [1] is 50 nM; in assay [2], 48 nM; in assay [3] it was 56 nM; in assay [4], 96 nM.
